The compounds below were run against T1, Axl (Homo sapiens, UniProt P30530) (assay: Axl NanoBRET intracellular kinase assay (intracellular binding, K-5 tracer displacement)). Conditions: HEK-293 cells transfected with Axl-NanoLuc, 0.35 μM K-5 NanoBRET tracer; read-out: Cell Binding AXL.
T1 sequence (P30530 26-894): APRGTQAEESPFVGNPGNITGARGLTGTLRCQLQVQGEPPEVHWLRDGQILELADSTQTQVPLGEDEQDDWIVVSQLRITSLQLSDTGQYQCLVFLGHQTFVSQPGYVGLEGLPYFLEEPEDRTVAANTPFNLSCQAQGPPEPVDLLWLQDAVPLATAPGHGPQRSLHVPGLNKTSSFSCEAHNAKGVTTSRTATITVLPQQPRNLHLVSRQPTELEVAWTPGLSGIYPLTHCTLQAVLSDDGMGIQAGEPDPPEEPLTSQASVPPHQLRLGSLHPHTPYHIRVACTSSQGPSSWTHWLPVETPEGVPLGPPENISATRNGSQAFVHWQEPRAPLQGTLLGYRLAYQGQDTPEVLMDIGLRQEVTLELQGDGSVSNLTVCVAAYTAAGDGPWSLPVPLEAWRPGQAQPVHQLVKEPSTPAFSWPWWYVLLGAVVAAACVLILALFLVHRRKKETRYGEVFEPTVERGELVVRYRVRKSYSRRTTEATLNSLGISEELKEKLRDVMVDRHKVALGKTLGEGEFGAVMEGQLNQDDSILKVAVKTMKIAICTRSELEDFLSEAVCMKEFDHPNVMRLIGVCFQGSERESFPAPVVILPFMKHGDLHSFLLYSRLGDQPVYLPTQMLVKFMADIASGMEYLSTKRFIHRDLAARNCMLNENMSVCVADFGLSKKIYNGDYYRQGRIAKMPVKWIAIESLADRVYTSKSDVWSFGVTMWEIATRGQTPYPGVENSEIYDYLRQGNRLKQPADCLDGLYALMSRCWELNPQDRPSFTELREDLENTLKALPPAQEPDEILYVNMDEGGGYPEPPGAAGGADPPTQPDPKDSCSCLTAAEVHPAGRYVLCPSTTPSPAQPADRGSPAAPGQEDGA
Design: host or cells: HEK-293
Experimental: Measuring Intracellular Binding of Axl Inhibitors
Axl NanoBRET™ intracellular kinase assay (Promega, N2540) was performed according to manufacturer's recommendation. In brief, HEK-293 cells are transiently transfected with Ax1-NanoLuc fusion vector (Promega, NV1071), utilizing Fugene HD transfection reagent (Promega, E2311) a day before experiment following manufacturer's recommendation.
The day of the assay, the cells were collected and resuspended in Opti-MEM media (ThermoFisher, 31985070) at 2e5 cells/mL concentration. Testing compounds were serial diluted and dispensed into a white 384 well polystyrene plate at 200 nL in 100% DMSO. 40 μL of resuspended cells is then added per well for a final condition of 8K cells/well with 0.5% DMSO. After one-hour compound pre-incubation at 37° C. and 5% CO2, cells were further incubated with 0.35 μM K-5 NanoBRET tracer for two-hours at 37° C. and 5% CO2. […] of 3× substrate plus Inhibitor solution was prepared according to kits manual and added to the cells followed by a 30 second pulse centrifugation spin. The plate was then immediately read utilizing an Envision (Perkin Elmer) plate reader. The BRET signal is measured by taking the ratio of the emissions reading at 610 nm and 450 nm. Compound binding is based on the decrease BRET signal caused by the displacement of the K-5 tracer. […] ICso value of compounds was determined by 4-parameter non-linear regression fitting of percent activity in GraphPad Prism software.

IC50	Compound
100 to 1000 nM	Fc1cccnc1-c1ccc(-c2c[nH]c3ncc(-c4ccc5c(c4)CC[C@@H](N4C6COCC4C6)CC5)cc23)cc1 [Example 42, 6-[(7S)-2-{3-[4-(3-Fluoropyridin-2-yl)phenyl]-1H-pyrrolo[2,3-b]pyridin-5-yl}-6,7,8,9-tetrahydro-5H-benzo[7]annulen-7-yl]-3-oxa-6-azabicyclo[3.1.1]heptane]
< 100 nM	Cc1cccnc1-c1ccc(-c2n[nH]c3ncc(-c4ccc5c(c4)CC[C@@H](N4C6COCC4C6)CC5)cc23)cc1 [Example 2, 6-[(7S)-2-{3-[4-(3-Methylpyridin-2-yl)phenyl]-2H-pyrazolo[3,4-b]pyridin-5-yl}-6,7,8,9-tetrahydro-5H-benzo[7]annulen-7-yl]-3-oxa-6-azabicyclo[3.1.1]heptane]
100 to 1000 nM	Fc1cc(-c2c[nH]c3ncc(-c4ccc5c(c4)CC[C@@H](N4C6COCC4C6)CC5)cc23)ccc1-c1ccccn1 [Example 40, 6-[(7S)-2-{3-[3-Fluoro-4-(pyridin-2-yl)phenyl]-1H-pyrrolo[2,3-b]pyridin-5-yl}-6,7,8,9-tetrahydro-5H-benzo[7]annulen-7-yl]-3-oxa-6-azabicyclo[3.1.1]heptane]
> 1000 nM	COc1cccc(-c2ccc(-c3n[nH]c4ncc(-c5ccc6c(c5)CC[C@@H](N5C7COCC5C7)CC6)cc34)cc2)n1 [Example 162, 6-[(7S)-2-{3-[4-(6-Methoxypyridin-2-yl)phenyl]-2H-pyrazolo[3,4-b]pyridin-5-yl}-6,7,8,9-tetrahydro-5H-benzo[7]annulen-7-yl]-3-oxa-6-azabicyclo[3.1.1]heptane]
< 100 nM	C[C@@H]1CCCN1[C@@]1(C)CCc2ccc(-c3cnc4[nH]nc(-c5ccc(-c6ncco6)cc5)c4c3)cc2CC1 [Example 90, 2-(4-{5-[(7S)-7-Methyl-7-[(2R)-2-methylpyrrolidin-1-yl]-6,7,8,9-tetrahydro-5H-benzo[7]annulen-2-yl]-2H-pyrazolo[3,4-b]pyridin-3-yl}phenyl)-1,3-oxazole]
< 100 nM	C[C@@H]1CCCN1[C@@]1(C)CCc2ccc(-c3cnc4[nH]nc(-c5ccc(-c6nccs6)cc5)c4c3)cc2CC1 [Example 91, 2-(4-{5-[(7S)-7-Methyl-7-[(2R)-2-methylpyrrolidin-1-yl]-6,7,8,9-tetrahydro-5H-benzo[7]annulen-2-yl]-2H-pyrazolo[3,4-b]pyridin-3-yl}phenyl)-1,3-thiazole]
100 to 1000 nM	COc1cc(-c2c[nH]c3ncc(-c4ccc5c(c4)CC[C@@H](N4C6COCC4C6)CC5)cc23)ccc1-c1ccccn1 [Example 161, 6-[(7S)-2-{3-[3-Methoxy-4-(pyridin-2-yl)phenyl]-1H-pyrrolo[2,3-b]pyridin-5-yl}-6,7,8,9-tetrahydro-5H-benzo[7]annulen-7-yl]-3-oxa-6-azabicyclo[3.1.1]heptane]
< 100 nM	Cc1cncnc1-c1ccc(-c2c[nH]c3ncc(-c4ccc5c(c4)CC[C@@H](N4C6COCC4C6)CC5)cc23)cc1 [Example 47, 6-[(7S)-2-{3-[4-(5-Methylpyrimidin-4-yl)phenyl]-1H-pyrrolo[2,3-b]pyridin-5-yl}-6,7,8,9-tetrahydro-5H-benzo[7]annulen-7-yl]-3-oxa-6-azabicyclo[3.1.1]heptane]
< 100 nM	Clc1cc(-c2c[nH]c3ncc(-c4ccc5c(c4)CC[C@@H](N4C6COCC4C6)CC5)cc23)ccc1-c1ccccn1 [Example 44, 6-[(7S)-2-{3-[3-Chloro-4-(pyridin-2-yl)phenyl]-1H-pyrrolo[2,3-b]pyridin-5-yl}-6,7,8,9-tetrahydro-5H-benzo[7]annulen-7-yl]-3-oxa-6-azabicyclo[3.1.1]heptane]
< 100 nM	c1cc(-n2cc(-c3c[nH]c4ncc(-c5ccc6c(c5)CC[C@@H](N5C7COCC5C7)CC6)cc34)cn2)ccn1 [Example 45, 6-[(7S)-2-{3-[1-(Pyridin-4-yl)-1H-pyrazol-4-yl]-1H-pyrrolo[2,3-b]pyridin-5-yl}-6,7,8,9-tetrahydro-5H-benzo[7]annulen-7-yl]-3-oxa-6-azabicyclo[3.1.1]heptane]
100 to 1000 nM	c1cc(-c2ccc(-c3c[nH]c4ncc(-c5ccc6c(c5)CC[C@@H](N5C7COCC5C7)CC6)cc34)cc2)ccn1 [Example 41, 6-[(7S)-2-{3-[4-(Pyridin-4-yl)phenyl]-1H-pyrrolo[2,3-b]pyridin-5-yl}-6,7,8,9-tetrahydro-5H-benzo[7]annulen-7-yl]-3-oxa-6-azabicyclo[3.1.1]heptane]
100 to 1000 nM	Clc1cccnc1-c1ccc(-c2c[nH]c3ncc(-c4ccc5c(c4)CC[C@@H](N4C6COCC4C6)CC5)cc23)cc1 [Example 43, 6-[(7S)-2-{3-[4-(3-Chloropyridin-2-yl)phenyl]-1H-pyrrolo[2,3-b]pyridin-5-yl}-6,7,8,9-tetrahydro-5H-benzo[7]annulen-7-yl]-3-oxa-6-azabicyclo[3.1.1]heptane]
100 to 1000 nM	Cc1nncn1-c1ccc(-c2n[nH]c3ncc(-c4ccc5c(c4)CC[C@@H](N4C6COCC4C6)CC5)cc23)cc1 [Example 11, 6-[(7S)-2-{3-[4-(3-Methyl-4H-1,2,4-triazol-4-yl)phenyl]-1H-pyrazolo[3,4-b]pyridin-5-yl}-6,7,8,9-tetrahydro-5H-benzo[7]annulen-7-yl]-3-oxa-6-azabicyclo[3.1.1]heptane]
< 100 nM	Cc1nccnc1-c1ccc(-c2c[nH]c3ncc(-c4ccc5c(c4)CC[C@@H](N4C6COCC4C6)CC5)cc23)cc1 [Example 48, 6-[(7S)-2-{3-[4-(3-Methylpyrazin-2-yl)phenyl]-1H-pyrrolo[2,3-b]pyridin-5-yl}-6,7,8,9-tetrahydro-5H-benzo[7]annulen-7-yl]-3-oxa-6-azabicyclo[3.1.1]heptane]
100 to 1000 nM	COc1cc(-c2n[nH]c3ncc(-c4ccc5c(c4)CC[C@@H](N4C6COCC4C6)CC5)cc23)ccc1-c1ccccn1 [Example 160, 6-[(7S)-2-{3-[3-Methoxy-4-(pyridin-2-yl)phenyl]-2H-pyrazolo[3,4-b]pyridin-5-yl}-6,7,8,9-tetrahydro-5H-benzo[7]annulen-7-yl]-3-oxa-6-azabicyclo[3.1.1]heptane]
< 100 nM	CN(C)C(=O)c1ccccc1-c1ccc(-c2c[nH]c3ncc(-c4ccc5c(c4)CC[C@@H](N4C6COCC4C6)CC5)cc23)cc1 [Example 92, N,N-Dimethyl-4′-{5-[(7S)-7-{3-oxa-6-azabicyclo[3.1.1]heptan-6-yl}-6,7,8,9-tetrahydro-5H-benzo[7]annulen-2-yl]-1H-pyrrolo[2,3-b]pyridin-3-yl}-[1,1′-biphenyl]-2-carboxamide]
< 100 nM	Cc1cccnc1-c1ccc(-c2c[nH]c3ncc(-c4ccc5c(c4)CC[C@@H](N4C6COCC4C6)CC5)cc23)cc1 [Example 1, 6-[(7S)-2-{3-[4-(3-Methylpyridin-2-yl)phenyl]-1H-pyrrolo[2,3-b]pyridin-5-yl}-6,7,8,9-tetrahydro-5H-benzo[7]annulen-7-yl]-3-oxa-6-azabicyclo[3.1.1]heptane]
< 100 nM	Cc1ccnnc1-c1ccc(-c2c[nH]c3ncc(-c4ccc5c(c4)CC[C@@H](N4C6COCC4C6)CC5)cc23)cc1 [Example 49, 6-[(7S)-2-{3-[4-(4-Methylpyridazin-3-yl)phenyl]-1H-pyrrolo[2,3-b]pyridin-5-yl}-6,7,8,9-tetrahydro-5H-benzo[7]annulen-7-yl]-3-oxa-6-azabicyclo[3.1.1]heptane]

Source: US12195482B1 (Arcus Biosciences, Inc., priority 2022, dated 2025)
